Data taken from ChEMBL document CHEMBL4196005, “Novel butanehydrazide derivatives of purine-2,6-dione as dual PDE4/7 inhibitors with potential anti-inflammatory activity: Design, synthesis and biological evaluation” (Eur J Med Chem, 2018).
pIC50: −log10 of the molar value. The source made the active and inactive calls. The calls are words filed in the database; no cut-off is given here.

Legend:
[1] = biological target: 3',5'-cyclic-AMP phosphodiesterase 4B (Homo sapiens, UniProt Q07343); assay: Inhibition of human GST-tagged PDE4B expressed in baculovirus infected Sf9 insect cells using cAMP as substrate after 10 mins by PDE-Glo Phosphodiesterase Assay
3',5'-cyclic-AMP phosphodiesterase 4B, sequence (Q07343 whole entry): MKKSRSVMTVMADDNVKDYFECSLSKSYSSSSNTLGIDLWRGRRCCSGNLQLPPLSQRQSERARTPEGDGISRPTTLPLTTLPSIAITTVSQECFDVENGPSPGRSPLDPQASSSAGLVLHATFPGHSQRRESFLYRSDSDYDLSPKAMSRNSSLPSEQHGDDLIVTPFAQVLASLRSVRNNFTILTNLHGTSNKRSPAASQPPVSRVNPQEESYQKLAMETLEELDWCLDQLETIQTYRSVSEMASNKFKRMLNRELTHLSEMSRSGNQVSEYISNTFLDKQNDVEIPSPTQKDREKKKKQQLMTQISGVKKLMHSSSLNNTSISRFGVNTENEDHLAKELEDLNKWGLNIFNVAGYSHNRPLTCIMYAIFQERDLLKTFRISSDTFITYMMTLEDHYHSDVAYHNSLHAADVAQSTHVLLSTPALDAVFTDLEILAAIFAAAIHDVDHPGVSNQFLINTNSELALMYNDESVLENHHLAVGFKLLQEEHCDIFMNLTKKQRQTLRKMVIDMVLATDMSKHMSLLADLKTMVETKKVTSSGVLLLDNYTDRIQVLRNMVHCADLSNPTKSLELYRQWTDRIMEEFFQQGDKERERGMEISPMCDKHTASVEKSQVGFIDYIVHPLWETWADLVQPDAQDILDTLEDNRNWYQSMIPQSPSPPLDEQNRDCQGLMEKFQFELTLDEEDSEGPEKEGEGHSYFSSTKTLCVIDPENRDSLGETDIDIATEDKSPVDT

[2] = biological target: T1, High affinity 3',5'-cyclic-AMP phosphodiesterase 7A (Homo sapiens, UniProt Q13946); assay: Inhibition of human GST-tagged PDE7A expressed in baculovirus infected Sf9 insect cells using cAMP as substrate after 10 mins by PDE-Glo Phosphodiesterase Assay
T1 sequence (Q13946 whole entry): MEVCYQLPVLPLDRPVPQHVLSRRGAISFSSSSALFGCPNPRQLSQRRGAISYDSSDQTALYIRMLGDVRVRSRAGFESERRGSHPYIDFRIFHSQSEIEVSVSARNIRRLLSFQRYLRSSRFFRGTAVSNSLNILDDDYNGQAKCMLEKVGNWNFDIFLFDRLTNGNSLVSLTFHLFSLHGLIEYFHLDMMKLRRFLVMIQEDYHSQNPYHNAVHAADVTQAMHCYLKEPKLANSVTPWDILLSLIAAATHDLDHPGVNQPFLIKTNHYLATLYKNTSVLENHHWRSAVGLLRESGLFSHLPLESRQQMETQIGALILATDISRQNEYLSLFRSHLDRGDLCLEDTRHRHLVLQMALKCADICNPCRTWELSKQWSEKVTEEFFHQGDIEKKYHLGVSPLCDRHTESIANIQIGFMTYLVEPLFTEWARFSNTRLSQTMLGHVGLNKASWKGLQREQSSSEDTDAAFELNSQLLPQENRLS

[3] = biological target: T1, High affinity 3',5'-cyclic-AMP phosphodiesterase 7A; assay: Inhibition of human recombinant FLAG-tagged PDE7A expressed in African green monkey COS7 cells using [3H]cAMP as substrate after 30 mins by scintillation counting analysis; assay type: cell-based
[4] = Inhibition of guinea pig PDE4 using [3H]cAMP as substrate after 30 mins
[5] = system: Rattus norvegicus; assay: Antiinflammatory activity in albino Wistar rat assessed as inhibition of LPS-induced TNFalpha production in plasma at 50 mg/kg, ip after 1 hr by ELISA; assay type: functional, organism-based
[6] = system: Rattus norvegicus; assay: Antiinflammatory activity in albino Wistar rat assessed as inhibition of LPS-induced TNFalpha production in plasma at 50 mg/kg, ip after 2 hrs by ELISA; assay type: functional, organism-based
[7] = system: Rattus norvegicus; assay: Antiinflammatory activity in albino Wistar rat assessed as inhibition of LPS-induced TNFalpha production in plasma at 50 mg/kg, ip after 1.5 hrs by ELISA relative to control; assay type: functional
[8] = system: Mus musculus; assay: In vivo inhibition of PDE4 in Balb/c mouse assessed as plasma cAMP levels at 100 mg/kg, po after 20 mins by RIA (reference value: 80.5 pmol/ml); assay type: functional
[9] = biological target: T1, High affinity 3',5'-cyclic-AMP phosphodiesterase 7A; assay: Inhibition of PDE7A1 (unknown origin) expressed in baculovirus infected insect cells using [3H]cAMP as substrate preincubated for 5 mins followed by substrate addition and measured after 15 mins by scintillation proximity assay
[10] = biological target: 3',5'-cyclic-AMP phosphodiesterase 4D (Homo sapiens, UniProt Q08499); assay: Inhibition of PDE4D3 (unknown origin) using [3H]cAMP as substrate preincubated for 5 mins followed by substrate addition and measured after 15 mins by scintillation proximity assay
3',5'-cyclic-AMP phosphodiesterase 4D, sequence (Q08499 whole entry): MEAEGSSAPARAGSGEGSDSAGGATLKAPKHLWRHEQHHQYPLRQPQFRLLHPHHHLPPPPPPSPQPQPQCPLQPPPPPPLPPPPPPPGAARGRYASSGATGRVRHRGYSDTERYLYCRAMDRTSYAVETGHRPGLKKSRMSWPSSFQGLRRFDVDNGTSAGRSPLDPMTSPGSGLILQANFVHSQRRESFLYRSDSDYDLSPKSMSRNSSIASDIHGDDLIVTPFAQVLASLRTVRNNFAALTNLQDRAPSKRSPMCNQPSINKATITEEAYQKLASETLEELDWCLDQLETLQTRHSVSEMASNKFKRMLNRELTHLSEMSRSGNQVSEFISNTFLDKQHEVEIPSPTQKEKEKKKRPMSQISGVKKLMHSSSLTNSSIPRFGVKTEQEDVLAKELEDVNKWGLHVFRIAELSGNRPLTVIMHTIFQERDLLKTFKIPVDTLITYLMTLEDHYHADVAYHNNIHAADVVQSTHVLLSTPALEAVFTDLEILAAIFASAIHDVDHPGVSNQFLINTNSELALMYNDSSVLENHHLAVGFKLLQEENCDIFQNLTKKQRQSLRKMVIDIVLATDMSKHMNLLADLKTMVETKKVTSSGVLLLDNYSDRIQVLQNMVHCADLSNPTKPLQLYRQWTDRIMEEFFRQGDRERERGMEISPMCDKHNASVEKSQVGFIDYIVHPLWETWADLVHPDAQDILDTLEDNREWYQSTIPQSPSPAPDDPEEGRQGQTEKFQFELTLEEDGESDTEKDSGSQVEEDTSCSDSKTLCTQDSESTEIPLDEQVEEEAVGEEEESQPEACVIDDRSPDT

[11] = Inhibition of PDE7 in human HUT78 cell lysate using cAMP as substrate after 20 mins by scintillation proximity assay
[12] = Inhibition of PDE4 in human HUT78 cell lysate using cAMP as substrate after 20 mins by scintillation proximity assay
[13] = Inhibition of PDE4 (unknown origin) using [3H]-cAMP as substrate after 60 mins by scintillation proximity assay; design: species or system Homo sapiens
[14] = Inhibition of human recombinant His-tagged PDE7 expressed in baculovirus infected Sf9 insect cells using [3H]-cAMP as substrate after 60 mins by scintillation proximity assay
[15] = Inhibition of human PDE4 using [3H]-cAMP as substrate after 15 mins by scintillation proximity assay
[16] = biological target: T1, High affinity 3',5'-cyclic-AMP phosphodiesterase 7A; assay: Inhibition of human C-terminal FLAG-tagged PDE7A expressed in baculovirus infected Sf9 cells using [3H]-cAMP as substrate after 15 mins by scintillation proximity assay

| pIC50 [1] | pIC50 [2] | Compound | other results |
| --- | --- | --- | --- |
| 3.76 | 5.68 | Cc1ccc([N+](=O)[O-])cc1S(=O)(=O)N(C)C | – |
| 4.15 | 4.16 | COc1ccc(/C=N/NC(=O)CCCn2c(NCc3ccco3)nc3c2c(=O)n(C)c(=O)n3C)c(O)c1 | – |
| 5.74 | 5.02 | Cn1c(=O)c2c(nc(NCc3ccccn3)n2CCCC(=O)N/N=C/c2ccc(O)c(O)c2O)n(C)c1=O | – |
| 4.29 | 4.03 | CCCOc1nc2c(c(=O)n(C)c(=O)n2C)n1CCCC(=O)N/N=C/c1ccccc1 | – |
| – | – | CCOc1cc2cc(CO)c(CO)c(-c3ccnc(-n4nc(-c5cccnc5)c5ccccc5c4=O)c3)c2cc1OCC | pIC50 [3]: 5.77; pIC50 [4]: 9.89 |
| 5.72 | 5.09 | Cn1c(=O)c2c(nc(NCc3ccccc3)n2CCCC(=O)N/N=C/c2ccc(O)c(O)c2O)n(C)c1=O | inhibition [5]: inactive; inhibition [6]: inactive; inhibition in vivo at 50 mg/kg [7]: 53% |
| 5.26 | 3.94 | Cn1c(=O)c2c(nc(NCc3ccccc3)n2CCCC(=O)N/N=C/c2ccc(O)cc2O)n(C)c1=O | – |
| 5.36 | 4.98 | Cn1c(=O)c2c(nc(NCc3ccco3)n2CCCC(=O)N/N=C/c2ccc(O)cc2O)n(C)c1=O | – |
| – | – | COc1ccc(C2=NN(C3CCCC3)C(=O)C3CC=CCC23)cc1Cl (stereo not given) | pIC50 [9]: 7.74; pIC50 [10]: 9.11 |
| < 3.70 | < 3.70 | Cn1c(=O)c2c(ncn2CCCC(=O)N/N=C/c2ccc(O)cc2O)n(C)c1=O | – |
| < 3.70 | < 3.70 | CCOc1nc2c(c(=O)n(C)c(=O)n2C)n1CCCC(=O)N/N=C/c1ccccc1OC | – |
| < 3.70 | < 3.70 | Cn1c(=O)c2c(ncn2CCCC(=O)N/N=C/c2ccccc2O)n(C)c1=O | – |
| 4.79 | 3.85 | CCOc1nc2c(c(=O)n(C)c(=O)n2C)n1CCCC(=O)N/N=C/c1ccc(O)cc1O | – |
| 5.85 | 5.49 | Cn1c(=O)c2c(nc(NCCc3ccccc3)n2CCCC(=O)N/N=C/c2ccc(O)c(O)c2O)n(C)c1=O | inhibition in vivo at 50 mg/kg [7]: 84% |
| 4.36 | 4.28 | COc1ccc(/C=N/NC(=O)CCCn2c(NCc3ccccc3)nc3c2c(=O)n(C)c(=O)n3C)c(O)c1 | – |
| – | – | CCOC(=O)c1sc(Nc2nc(N3CCC(O)CC3)cc(N3CCC(O)CC3)n2)nc1C | pIC50 [11]: 7.22; pIC50 [12]: 5.49 |

| pIC50 [1] | pIC50 [2] | Compound | other results |
| --- | --- | --- | --- |
| – | – | CCC(C)(O)c1oc(=O)c2ccccc2c1-c1ccc(OC)c(OC2CCCC2)c1 (stereo not given) | pIC50 [13]: 5.42; pIC50 [14]: 5.51 |
| 4.55 | 4.07 | CC(C)Cn1c(=O)n(C)c(=O)c2[nH]cnc21 [ISOBUTYLMETHYLXANTHINE] | – |
| 5.10 | 4.56 | CCOc1nc2c(c(=O)n(C)c(=O)n2C)n1CCCC(=O)N/N=C/c1ccccc1O | – |
| 4.51 | 4.93 | CCCOc1nc2c(c(=O)n(C)c(=O)n2C)n1CCCC(=O)N/N=C/c1ccccc1O | – |
| 4.90 | < 3.70 | Cn1c(=O)c2c(nc(NCc3ccco3)n2CCCC(=O)N/N=C/c2ccccc2O)n(C)c1=O | – |
| 4.43 | 4.31 | CCOc1nc2c(c(=O)n(C)c(=O)n2C)n1CCCC(=O)N/N=C/c1ccccc1 | – |
| – | – | CCOC(=O)c1sc(Nc2nc(NCc3cc(OC)c(OC)c(OC)c3)cc(N3CCC(N(C)C)CC3)n2)nc1C | pIC50 [11]: 8.52; pIC50 [12]: 5.52 |
| < 3.70 | < 3.70 | CCOc1nc2c(c(=O)n(C)c(=O)n2C)n1CCCC(=O)N/N=C/c1ccc(OC)cc1O | – |
| 5.13 | 5.42 | Cn1c(=O)c2c(nc(NCc3ccco3)n2CCCC(=O)N/N=C/c2ccc(O)c(O)c2O)n(C)c1=O | inhibition in vivo at 50 mg/kg [7]: 88% |
| 5.11 | < 3.70 | Cn1c(=O)c2c(nc(NCc3ccccn3)n2CCCC(=O)N/N=C/c2ccccc2O)n(C)c1=O | – |
| < 3.70 | 4.47 | Cn1c(=O)c2c(nc(NCc3ccccc3)n2CCCC(=O)N/N=C/c2ccccc2O)n(C)c1=O | – |
| 4.32 | 4.05 | CCCOc1nc2c(c(=O)n(C)c(=O)n2C)n1CCCC(=O)N/N=C/c1ccc(OC)cc1O | – |
| – | – | COc1ccc(-c2cc3c(n2-c2ccc(S(=O)(=O)Nc4nc(C)cc(C)n4)cc2)CCC(N2CCN(C)CC2)C3)cc1C (stereo not given) | pIC50 [15]: 6.20; pIC50 [16]: 7.85 |
| 3.94 | 4.25 | CCCOc1nc2c(c(=O)n(C)c(=O)n2C)n1CCCC(=O)N/N=C/c1ccc(O)cc1O | – |
| 4.57 | 5.14 | Cn1c(=O)c2c(nc(NCCc3ccccc3)n2CCCC(=O)N/N=C/c2ccccc2O)n(C)c1=O | – |

| Compound | pIC50 [1] | pIC50 [2] | other results |
| --- | --- | --- | --- |
| Cn1c(=O)c2nc[nH]c2n(C)c1=O.O [THEOPHYLLINE] | < 3.70 | – | Activity [8]: 296.9 pmol/mL |
| COc1ccc(C2CNC(=O)C2)cc1OC1CCCC1 (stereo not given) [ROLIPRAM] | – | < 3.70 | – |
